Source: the supplement of paper PMC6045584
± gives the standard deviation of the averaged measurements.

How the values were obtained:
[1] = compound: CCN(CC)CCNC(=O)c1c(C)[nH]c(/C=C2\C(=O)Nc3ccc(F)cc32)c1C [SUNITINIB]; assay: surviving fraction relative to DMSO-only wells; higher = less growth inhibition; conditions: exposure time: 5 days
Outline: (§1)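 A line counted only if its three screens reached replicate Pearson r >0.7 and median Z' >0.3. Tumour cells in log phase were seeded at 250–500 per well in 384-well plates and, after 24 hours, kept in continuous contact with inhibitors at 0.5, 1, 5, 10, 50, 100, 500 and 1000 nM for five days. Surviving fraction was taken from CellTiter-Glo luminescence relative to the median of DMSO-only wells.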

[2] = compound: CCC1=C[C@@H]2CN(C1)Cc1c([nH]c3ccccc13)[C@@](C(=O)OC)(c1cc3c(cc1OC)N(C)[C@H]1[C@@](O)(C(=O)OC)[C@H](OC(C)=O)[C@]4(CC)C=CCN5CC[C@]31[C@@H]54)C2 [VINORELBINE]; assay: as above; conditions: exposure time: 5 days
Outline: as §1

Row | Test System | surviving fraction ([1]; 0.5 nM) | surviving fraction ([1]; 1 nM) | surviving fraction ([1]; 5 nM) | surviving fraction ([1]; 10 nM) | surviving fraction ([1]; 50 nM) | surviving fraction ([1]; 100 nM) | surviving fraction ([1]; 500 nM) | surviving fraction ([1]; 1000 nM) | surviving fraction ([2]; 0.5 nM) | surviving fraction ([2]; 1 nM) | surviving fraction ([2]; 5 nM) | surviving fraction ([2]; 10 nM) | surviving fraction ([2]; 50 nM) | surviving fraction ([2]; 100 nM) | surviving fraction ([2]; 500 nM) | surviving fraction ([2]; 1000 nM)
1 | SG31 HEADNECK | 0.778 ± 0.067 | 0.858 ± 0.037 | 0.884 ± 0.12 | 0.419 ± 0.04 | 0.93 ± 0.06 | 0.962 ± 0.14 | 0.797 ± 0.13 | 0.343 ± 0.017 | 1.08 ± 0.15 | 1.19 ± 0.14 | 0.848 ± 0.12 | 0.82 ± 0.11 | 0.369 ± 0.04 | 0.315 ± 0.021 | 0.308 ± 0.057 | 0.38 ± 0.072
2 | SG32 HEADNECK | – | 0.578 ± 0.032 | 0.771 ± 0.13 | 0.423 ± 0.078 | 0.96 ± 0.045 | 0.609 ± 0.062 | 0.317 ± 0.048 | 0.0993 ± 0.011 | 1.32 ± 0.21 | 1.18 ± 0.3 | 0.81 ± 0.042 | 0.621 ± 0.047 | 0.258 ± 0.041 | 0.302 ± 0.053 | 0.409 ± 0.076 | 0.437 ± 0.048
3 | SG43 HEADNECK | 1.27 ± 0.13 | 1.25 ± 0.068 | 0.975 ± 0.18 | – | 0.824 ± 0.12 | 1.02 ± 0.13 | 0.982 ± 0.09 | 1.52 ± 0.029 | 1.04 ± 0.14 | 1.13 ± 0.097 | 0.785 ± 0.095 | 0.669 ± 0.075 | 0.47 ± 0.036 | 0.364 ± 0.093 | 0.242 ± 0.066 | 0.138 ± 0.066
4 | SIHA CERVIX | 0.957 ± 0.088 | – | 0.972 ± 0.04 | 0.984 ± 0.028 | 1.11 ± 0.047 | 1.02 ± 0.086 | 0.725 ± 0.026 | 0.418 ± 0.04 | 1.09 ± 0.064 | 1.14 ± 0.13 | 1.12 ± 0.027 | 1.03 ± 0.064 | 0.324 ± 0.016 | 0.277 ± 0.085 | 0.341 ± 0.022 | 0.327 ± 0.055
5 | SJSA1 BONE | – | 0.869 ± 0.017 | – | 0.872 ± 0.022 | 1.02 ± 0.038 | – | 0.8283 ± 0.0078 | 0.579 ± 0.011 | 1.03 ± 0.021 | 1 ± 0.041 | 1.04 ± 0.076 | 0.971 ± 0.033 | 0.499 ± 0.029 | 0.211 ± 0.022 | 0.0877 ± 0.009 | 0.0907 ± 0.0081
6 | SKBR3 BREAST | – | 0.795 ± 0.073 | 0.738 ± 0.1 | 0.696 ± 0.12 | 0.875 ± 0.035 | 0.867 ± 0.084 | 0.64 ± 0.064 | 0.492 ± 0.014 | 0.957 ± 0.093 | 1.17 ± 0.035 | 0.532 ± 0.12 | 0.291 ± 0.058 | 0.146 ± 0.013 | 0.156 ± 0.019 | 0.179 ± 0.0087 | 0.182 ± 0.015
7 | SNU475 LIVER | – | 0.729 ± 0.052 | 0.814 ± 0.049 | 0.371 ± 0.031 | – | 0.8163 ± 0.0045 | 0.752 ± 0.022 | 0.193 ± 0.01 | 0.982 ± 0.019 | 0.998 ± 0.011 | 1.01 ± 0.029 | 1 ± 0.038 | 0.386 ± 0.041 | 0.197 ± 0.021 | 0.17 ± 0.019 | 0.204 ± 0.032
8 | SUM44 BREAST | 0.82 ± 0.065 | 0.877 ± 0.02 | 0.966 ± 0.061 | 0.915 ± 0.04 | 1.07 ± 0.076 | 1.11 ± 0.023 | – | 0.958 ± 0.013 | 1.01 ± 0.068 | 0.972 ± 0.034 | 0.668 ± 0.068 | 0.387 ± 0.024 | 0.258 ± 0.013 | 0.225 ± 0.023 | 0.264 ± 0.014 | 0.256 ± 0.024
9 | SUM149 BREAST | 0.797 ± 0.036 | 0.755 ± 0.016 | 0.884 ± 0.052 | 0.213 ± 0.016 | 0.906 ± 0.061 | 0.756 ± 0.039 | 0.619 ± 0.017 | 0.176 ± 0.01 | 1.07 ± 0.072 | 1.11 ± 0.038 | 1.03 ± 0.059 | 0.768 ± 0.076 | 0.052 ± 0.0027 | 0.0443 ± 0.0076 | 0.0563 ± 0.0047 | 0.061 ± 0.0046
